Test results as given in patent US20220009920A1 (GB005, Inc., priority 2020, published 2022).

How the values were obtained:
Assay in all cases: Large panel kinase profiling
Assay type in all cases: biochemical
Conditions in all cases: 1 μM test article, 1 mM ATP
[1] = molecular target: NTRK3/TRKC (Homo sapiens, UniProt Q16288)
Outline: (§1)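 Single-point profiling at 1 μM test article used 1 mM ATP. Phosphorylation was tracked by sensor fluorescence increase over time at 30° C., with readings each minute at excitation 360 nm and emission 485 nm.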

[2] = molecular target: T1, MAP3K12 (Homo sapiens, UniProt Q12852)
T1 sequence (Q12852 1-859): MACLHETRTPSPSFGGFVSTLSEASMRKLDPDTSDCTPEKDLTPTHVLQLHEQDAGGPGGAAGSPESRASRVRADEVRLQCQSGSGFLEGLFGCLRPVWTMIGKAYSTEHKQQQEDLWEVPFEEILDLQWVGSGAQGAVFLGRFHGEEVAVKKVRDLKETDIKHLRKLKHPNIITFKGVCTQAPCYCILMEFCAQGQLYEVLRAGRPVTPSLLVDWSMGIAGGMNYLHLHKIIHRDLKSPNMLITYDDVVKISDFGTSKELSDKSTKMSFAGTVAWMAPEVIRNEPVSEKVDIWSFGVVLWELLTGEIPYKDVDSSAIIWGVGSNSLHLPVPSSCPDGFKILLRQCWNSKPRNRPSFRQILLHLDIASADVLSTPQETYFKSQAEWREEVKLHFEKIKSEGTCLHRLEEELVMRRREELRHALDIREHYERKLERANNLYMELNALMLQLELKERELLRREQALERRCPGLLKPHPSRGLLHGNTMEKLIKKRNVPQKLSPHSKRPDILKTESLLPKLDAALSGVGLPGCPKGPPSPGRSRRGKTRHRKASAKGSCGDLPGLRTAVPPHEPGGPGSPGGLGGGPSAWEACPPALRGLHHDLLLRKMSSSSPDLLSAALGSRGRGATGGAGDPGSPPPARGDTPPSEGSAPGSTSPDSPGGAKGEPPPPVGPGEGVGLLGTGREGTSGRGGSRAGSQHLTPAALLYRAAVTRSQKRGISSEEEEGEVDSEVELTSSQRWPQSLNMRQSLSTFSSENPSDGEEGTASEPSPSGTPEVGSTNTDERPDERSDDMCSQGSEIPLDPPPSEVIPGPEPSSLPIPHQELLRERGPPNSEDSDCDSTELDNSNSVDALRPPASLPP
Outline: as §1

[3] = molecular target: T2, PRKD3 (Homo sapiens, UniProt O94806)
T2 sequence (O94806 1-890): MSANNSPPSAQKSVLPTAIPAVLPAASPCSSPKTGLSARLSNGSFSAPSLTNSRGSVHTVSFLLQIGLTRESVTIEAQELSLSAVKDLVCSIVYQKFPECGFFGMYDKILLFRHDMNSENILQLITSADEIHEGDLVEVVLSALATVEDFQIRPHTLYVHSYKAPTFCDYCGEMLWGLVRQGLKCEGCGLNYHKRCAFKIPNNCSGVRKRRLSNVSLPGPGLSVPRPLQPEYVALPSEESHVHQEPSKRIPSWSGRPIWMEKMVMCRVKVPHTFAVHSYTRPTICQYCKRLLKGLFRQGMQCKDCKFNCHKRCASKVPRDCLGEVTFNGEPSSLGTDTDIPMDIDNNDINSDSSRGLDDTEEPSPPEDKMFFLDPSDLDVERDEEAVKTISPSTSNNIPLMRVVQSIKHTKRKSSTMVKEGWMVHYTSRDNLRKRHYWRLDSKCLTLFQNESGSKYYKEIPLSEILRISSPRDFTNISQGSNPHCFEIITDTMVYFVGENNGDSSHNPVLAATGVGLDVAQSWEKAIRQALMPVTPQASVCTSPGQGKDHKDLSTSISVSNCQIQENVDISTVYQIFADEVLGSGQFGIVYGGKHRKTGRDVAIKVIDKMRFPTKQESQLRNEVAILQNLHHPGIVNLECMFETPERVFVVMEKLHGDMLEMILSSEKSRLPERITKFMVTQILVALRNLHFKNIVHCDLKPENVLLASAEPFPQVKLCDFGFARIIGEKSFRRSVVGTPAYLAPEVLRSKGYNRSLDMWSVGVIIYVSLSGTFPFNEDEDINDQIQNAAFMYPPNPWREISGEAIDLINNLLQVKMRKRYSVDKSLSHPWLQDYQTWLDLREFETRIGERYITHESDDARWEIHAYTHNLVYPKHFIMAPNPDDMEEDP
Outline: as §1

[4] = molecular target: EPHA7 (Homo sapiens, UniProt Q15375)
EPHA7, sequence (Q15375 28-998, species assumed): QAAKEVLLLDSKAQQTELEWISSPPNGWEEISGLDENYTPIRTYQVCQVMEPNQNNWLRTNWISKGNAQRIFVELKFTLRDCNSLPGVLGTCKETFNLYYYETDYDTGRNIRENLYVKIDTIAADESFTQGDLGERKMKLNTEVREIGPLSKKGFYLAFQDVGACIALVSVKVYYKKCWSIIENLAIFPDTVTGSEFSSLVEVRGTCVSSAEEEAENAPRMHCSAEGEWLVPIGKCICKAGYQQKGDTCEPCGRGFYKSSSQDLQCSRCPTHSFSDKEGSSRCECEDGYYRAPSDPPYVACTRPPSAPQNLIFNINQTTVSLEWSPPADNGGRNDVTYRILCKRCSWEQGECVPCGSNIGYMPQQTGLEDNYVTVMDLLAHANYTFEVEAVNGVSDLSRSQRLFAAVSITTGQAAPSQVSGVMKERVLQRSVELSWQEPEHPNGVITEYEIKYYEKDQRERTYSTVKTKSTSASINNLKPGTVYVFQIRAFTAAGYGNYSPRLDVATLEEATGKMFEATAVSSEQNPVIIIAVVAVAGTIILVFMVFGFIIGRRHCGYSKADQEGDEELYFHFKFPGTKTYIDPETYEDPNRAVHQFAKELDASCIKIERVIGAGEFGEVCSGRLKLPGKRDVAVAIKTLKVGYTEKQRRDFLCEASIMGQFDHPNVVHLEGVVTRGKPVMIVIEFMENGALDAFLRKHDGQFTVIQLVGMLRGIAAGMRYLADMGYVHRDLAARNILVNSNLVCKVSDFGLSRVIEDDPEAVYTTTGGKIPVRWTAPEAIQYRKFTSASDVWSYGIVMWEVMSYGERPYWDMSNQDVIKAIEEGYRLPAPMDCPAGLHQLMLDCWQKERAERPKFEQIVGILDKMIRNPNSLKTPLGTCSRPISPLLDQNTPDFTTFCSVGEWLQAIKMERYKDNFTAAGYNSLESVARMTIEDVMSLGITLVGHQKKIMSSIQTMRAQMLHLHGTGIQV
Outline: as §1

[5] = molecular target: T3, MAPKAPK2/MK2 (Homo sapiens, UniProt P49137)
T3 construct: AssayQuant Technologies, Inc. (service provider)
T3 sequence (P49137 whole entry): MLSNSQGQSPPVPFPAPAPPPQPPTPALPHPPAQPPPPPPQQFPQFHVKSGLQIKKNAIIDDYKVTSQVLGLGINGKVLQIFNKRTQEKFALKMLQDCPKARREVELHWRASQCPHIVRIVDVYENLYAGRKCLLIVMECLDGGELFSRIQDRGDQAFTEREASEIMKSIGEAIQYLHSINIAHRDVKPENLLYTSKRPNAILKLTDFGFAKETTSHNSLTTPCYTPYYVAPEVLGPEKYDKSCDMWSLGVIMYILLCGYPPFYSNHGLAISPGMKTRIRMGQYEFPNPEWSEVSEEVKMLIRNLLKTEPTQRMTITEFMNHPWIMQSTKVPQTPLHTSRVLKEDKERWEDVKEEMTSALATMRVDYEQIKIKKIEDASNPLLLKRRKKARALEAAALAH
Outline: as §1

NTRK3/TRKC, sequence (Q16288 32-839): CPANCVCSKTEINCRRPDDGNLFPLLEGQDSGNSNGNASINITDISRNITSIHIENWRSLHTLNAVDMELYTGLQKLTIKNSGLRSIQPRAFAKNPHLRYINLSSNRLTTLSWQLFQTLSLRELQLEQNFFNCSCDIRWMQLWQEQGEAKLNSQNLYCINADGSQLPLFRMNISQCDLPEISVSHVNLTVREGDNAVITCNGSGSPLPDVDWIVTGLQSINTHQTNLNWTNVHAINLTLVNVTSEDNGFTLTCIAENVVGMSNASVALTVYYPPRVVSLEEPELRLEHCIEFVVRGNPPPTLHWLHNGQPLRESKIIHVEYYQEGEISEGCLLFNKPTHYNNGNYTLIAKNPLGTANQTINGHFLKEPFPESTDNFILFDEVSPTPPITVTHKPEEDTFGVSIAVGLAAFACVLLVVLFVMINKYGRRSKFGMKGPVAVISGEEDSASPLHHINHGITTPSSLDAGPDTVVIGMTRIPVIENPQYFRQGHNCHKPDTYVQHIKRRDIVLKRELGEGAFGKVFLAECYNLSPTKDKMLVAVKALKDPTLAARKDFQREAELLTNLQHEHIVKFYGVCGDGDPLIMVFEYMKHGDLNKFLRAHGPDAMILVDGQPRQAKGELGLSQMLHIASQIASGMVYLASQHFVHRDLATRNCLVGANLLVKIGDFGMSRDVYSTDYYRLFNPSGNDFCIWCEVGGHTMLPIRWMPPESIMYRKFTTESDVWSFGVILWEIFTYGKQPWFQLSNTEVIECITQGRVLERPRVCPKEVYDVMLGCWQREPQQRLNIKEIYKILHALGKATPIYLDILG

Compound	inhibition at 1 µM [1]	inhibition at 1 µM [2]	inhibition at 1 µM [3]	inhibition at 1 µM [4]	inhibition at 1 µM [5]
C=CC(=O)N1CCCC(c2c(F)cc(C(N)=O)c3[nH]c4c(c23)CCCCC4)C1 (single isomer, unassigned) [Compound 5-6]	-25.7%	5%	4.4%	-0.1%	-5.9%
C=CC(=O)N1CCC[C@@H](c2c(F)cc(C(N)=O)c3[nH]c4c(c23)CCC4)C1 [Compound 10-2, (S)-8-(1-acryloylpiperidin-3-yl)-7-fluoro-1,2,3,4-tetrahydrocyclo-penta[b]indole-5-carboxamide]	2.9%	-27.7%	-65.4%	-4.7%	-7.1%
C=CC(=O)N1CCC[C@@H](c2c(F)cc(C(N)=O)c3[nH]c4c(c23)CC2(CC4)CC2)C1 [Compound 6-2, (S)-5-(1-acryloylpiperidin-3-yl)-6-fluoro-1,2,4,9-tetrahydrospiro[carbazole-3,1′-cyclopropane]-8-carboxamide]	5.7%	-18.8%	-62.4%	5.1%	24.1%
